# Measurements as given in PMC10705919 (International Journal of Molecular Sciences, 2023).
# Target: T1, TRPV4 (Canis lupus, UniProt A0A8I3PAV3)
# T1 construct: endogenous channel in MDCK cells
# Test: whole-cell patch clamp, block of GSK1016790A-evoked currents in MDCK cells
# Type: cell-based
# T1 sequence (A0A8I3PAV3 1-828): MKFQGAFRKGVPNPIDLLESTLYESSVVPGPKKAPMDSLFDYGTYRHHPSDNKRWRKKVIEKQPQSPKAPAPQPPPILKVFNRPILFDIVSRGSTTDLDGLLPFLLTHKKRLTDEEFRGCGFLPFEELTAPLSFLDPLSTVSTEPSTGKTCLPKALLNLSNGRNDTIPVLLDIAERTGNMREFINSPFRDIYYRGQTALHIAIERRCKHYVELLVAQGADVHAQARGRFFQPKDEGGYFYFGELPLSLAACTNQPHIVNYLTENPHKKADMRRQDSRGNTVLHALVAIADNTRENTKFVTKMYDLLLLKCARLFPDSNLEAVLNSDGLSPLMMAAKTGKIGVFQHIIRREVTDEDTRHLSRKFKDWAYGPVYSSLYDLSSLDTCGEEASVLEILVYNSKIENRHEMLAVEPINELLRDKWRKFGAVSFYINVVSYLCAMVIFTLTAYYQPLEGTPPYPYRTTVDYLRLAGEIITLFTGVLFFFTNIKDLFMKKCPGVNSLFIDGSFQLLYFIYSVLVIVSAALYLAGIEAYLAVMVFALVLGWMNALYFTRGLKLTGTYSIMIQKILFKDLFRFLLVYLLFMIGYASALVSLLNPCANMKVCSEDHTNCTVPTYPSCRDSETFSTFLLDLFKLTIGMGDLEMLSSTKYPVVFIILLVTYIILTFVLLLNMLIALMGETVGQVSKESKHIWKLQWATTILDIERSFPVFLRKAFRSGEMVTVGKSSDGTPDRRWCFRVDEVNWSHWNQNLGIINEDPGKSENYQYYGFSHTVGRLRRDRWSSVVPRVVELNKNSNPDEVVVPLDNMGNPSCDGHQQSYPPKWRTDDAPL
compound,measurement,value
"Cc1c(C(=O)Nc2cccc(C(F)(F)F)c2)cc(-c2ccccc2)n1CCCN1CCOCC1 [HC, HC-067047]","whole-cell patch clamp, block of GSK1016790A-evoked currents in MDCK cells",the addition of HC significantly decreases the transient enhancement of dIm induced by GSK alone
